Laboratory results from US7473688B2, “Indolobenzazepine HCV NS5B inhibitors” (Bristol-Myers Squibb Company, priority 2005, dated 2009).

Key:
HCV NS5B = target: T1, HCV NS5B (Hepatitis C virus genotype 1b, UniProt Q9WMX2); assay: HCV NS5B RdRp enzyme assay (preincubation protocol); type: biochemical; conditions: Table 1b, read-out: IC50*
T1 construct: The protein was expressed with an 18 amino acid C-terminal truncation to enhance the solubility; made in house; host or cells: E. coli BL21 (DE3), pET21a
T1 sequence (Q9WMX2 2420-2992): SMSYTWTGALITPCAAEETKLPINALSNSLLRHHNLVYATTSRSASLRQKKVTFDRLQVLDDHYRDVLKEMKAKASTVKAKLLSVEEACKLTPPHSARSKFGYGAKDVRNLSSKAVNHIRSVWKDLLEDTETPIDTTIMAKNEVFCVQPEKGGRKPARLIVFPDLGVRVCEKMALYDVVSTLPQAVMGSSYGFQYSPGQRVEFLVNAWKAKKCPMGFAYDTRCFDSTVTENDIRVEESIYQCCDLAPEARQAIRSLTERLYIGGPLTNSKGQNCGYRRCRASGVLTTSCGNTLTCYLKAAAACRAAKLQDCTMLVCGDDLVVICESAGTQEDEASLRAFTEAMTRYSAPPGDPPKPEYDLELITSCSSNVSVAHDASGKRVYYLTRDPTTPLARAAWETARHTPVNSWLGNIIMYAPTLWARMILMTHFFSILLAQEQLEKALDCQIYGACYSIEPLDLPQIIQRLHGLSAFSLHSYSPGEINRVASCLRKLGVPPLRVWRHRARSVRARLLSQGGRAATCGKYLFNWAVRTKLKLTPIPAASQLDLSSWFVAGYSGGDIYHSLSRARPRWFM
In short: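 C-terminally truncated (Δ18) genotype 1b NS5B from E. coli, 14 nM, added to compound, then polyA template (0.2 nM), 3H-UTP (0.29 μM) and oligo-dT12 primer precaptured on streptavidin SPA beads. 4 h at 30 °C, pH 7.5, 2% DMSO; SPA readout; IC50 from seven concentrations by logistic fit.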

HCV replicon = HCV replicon FRET assay; type: cell-based; conditions: Hepatitis C virus, Table 1b; FRET assay; read-out: EC50*
In short: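 HCV replicon cells, with or without Renilla luciferase reporter, incubated with titrated compounds at 37 °C; Alamar blue read for cytotoxicity. NS3 protease activity read from lysates with 20 μM EDANS/DABCYL FRET peptide (340/490 nm, kinetic), or by Dual-Glo luciferase. Background from highest protease-inhibitor wells; EC50 = 50% signal reduction.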

| Compound | IC50 (HCV NS5B) | EC50 (HCV replicon) |
| --- | --- | --- |
| COc1ccc2c(c1)C=C(C(=O)N(C)[C@H](C(=O)N(C)C)C(C)C)Cn1c-2c(C2CCCCC2)c2ccc(C(=O)NS(=O)(=O)N(C)C)cc21 | < 20 nM | 30 to 1000 nM |
| COc1ccc2c(c1)C=C(C(=O)N(C)[C@H](C(=O)N1CCOCC1)C(C)C)Cn1c-2c(C2CCCCC2)c2ccc(C(=O)NS(=O)(=O)N(C)C)cc21 | 20 to 1000 nM | 30 to 1000 nM |
| COc1ccc2c(c1)C=C(C(=O)N(C)Cc1ccco1)Cn1c-2c(C2CCCCC2)c2ccc(C(=O)NS(=O)(=O)N(C)C)cc21 | < 20 nM | 30 to 1000 nM |
| COc1ccc2c(c1)C=C(C(=O)N(C)Cc1nccs1)Cn1c-2c(C2CCCCC2)c2ccc(C(=O)NS(=O)(=O)N(C)C)cc21 | < 20 nM | 30 to 1000 nM |
| COc1ccc2c(c1)C=C(C(=O)N(CC(=O)N(C)C)CC(=O)N(C)C)Cn1c-2c(C2CCCCC2)c2ccc(C(=O)NS(=O)(=O)N(C)C)cc21 | < 20 nM | 30 to 1000 nM |
| COc1ccc2c(c1)C=C(C(=O)N(C)[C@H](C)C(=O)O)Cn1c-2c(C2CCCCC2)c2ccc(C(=O)NS(=O)(=O)N(C)C)cc21 | 20 to 1000 nM | 30 to 1000 nM |
| COC(=O)c1ccc2c(C3CCCCC3)c3n(c2c1)CC(C(=O)N1CCOC(CO)C1)=Cc1c(OC)cccc1-3 (stereo not shown) | > 12500 nM | > 10000 nM |
| COc1cccc2c1C=C(C(=O)N1CCOC(CO)C1)Cn1c-2c(C2CCCCC2)c2ccc(C(=O)O)cc21 (stereo not shown) | 20 to 1000 nM | 30 to 1000 nM |
| COC(=O)c1ccc2c(C3CCCCC3)c3n(c2c1)CC(C(=O)N1C[C@@H](C)N[C@@H](C)C1)=Cc1c(OC)cccc1-3 | 20 to 1000 nM | > 370 nM |
| COc1cccc2c1C=C(C(=O)N1C[C@@H](C)N[C@@H](C)C1)Cn1c-2c(C2CCCCC2)c2ccc(C(=O)O)cc21 | 20 to 1000 nM | 30 to 1000 nM |
| CN(C)C(=O)CN(C)C(=O)C1=Cc2ccccc2-c2c(C3CCCCC3)c3ccc(C(=O)Nc4ccccn4)cc3n2C1 | 20 to 1000 nM | 1000 to 10000 nM |
| COc1ccc2c(c1)C=C(C(=O)N(C)CC(=O)N(C)C)Cn1c-2c(C2CCCCC2)c2ccc(C(=O)N(C)CC(=O)N(C)C)cc21 | 20 to 1000 nM | 1000 to 10000 nM |
| COc1ccc2c(c1)C=C(C(=O)N1CC(NC(=O)OC(C)(C)C)C1)Cn1c-2c(C2CCCCC2)c2ccc(C(=O)NS(=O)(=O)N(C)C)cc21 | 20 to 1000 nM | 30 to 1000 nM |
| COc1ccc2c(c1)C=C(C(=O)N1CCN(CCO)CC1)Cn1c-2c(C2CCCCC2)c2ccc(C(=O)NS(=O)(=O)N(C)C)cc21 | 20 to 1000 nM | 30 to 1000 nM |
| COc1ccc2c(c1)C=C(C(=O)N1CCC(CO)CC1)Cn1c-2c(C2CCCCC2)c2ccc(C(=O)NS(=O)(=O)N(C)C)cc21 | 20 to 1000 nM | 30 to 1000 nM |
| COc1ccc2c(c1)C=C(C(=O)N1CC(O)C1)Cn1c-2c(C2CCCCC2)c2ccc(C(=O)NS(=O)(=O)N(C)C)cc21 | 20 to 1000 nM | 30 to 1000 nM |
| COc1ccc2c(c1)C=C(C(=O)N1CC(OP(=O)(O)O)C1)Cn1c-2c(C2CCCCC2)c2ccc(C(=O)NS(=O)(=O)N(C)C)cc21 | 20 to 1000 nM | 1000 to 10000 nM |
| COc1ccc2c(c1)C=C(C(=O)N1CC(OP(=O)(OC(C)(C)C)OC(C)(C)C)C1)Cn1c-2c(C2CCCCC2)c2ccc(C(=O)NS(=O)(=O)N(C)C)cc21 | 20 to 1000 nM | 30 to 1000 nM |
| COc1ccc2c(c1)C=C(C(=O)N1CC(N)C1)Cn1c-2c(C2CCCCC2)c2ccc(C(=O)NS(=O)(=O)N(C)C)cc21 | 20 to 1000 nM | 30 to 1000 nM |
| COc1ccc2c(c1)CC(C(=O)N1CCN(CCO)CC1)Cn1c-2c(C2CCCCC2)c2ccc(C(=O)NS(=O)(=O)N(C)C)cc21 (stereo not shown) | 20 to 1000 nM | 30 to 1000 nM |
| COc1ccc2c(c1)CC(C(=O)N1CCC(CO)CC1)Cn1c-2c(C2CCCCC2)c2ccc(C(=O)NS(=O)(=O)N(C)C)cc21 (stereo not shown) | 20 to 1000 nM | 30 to 1000 nM |

| Compound | IC50 (HCV NS5B) | EC50 (HCV replicon) |
| --- | --- | --- |
| COc1ccc2c(c1)C=C(C(=O)N1CC(CO)C1)Cn1c-2c(C2CCCCC2)c2ccc(C(=O)NS(=O)(=O)N(C)C)cc21 | 20 to 1000 nM | 30 to 1000 nM |
| COc1ccc2c(c1)C=C(C(=O)N1C[C@@H](C)N(CC3CC3)[C@@H](C)C1)Cn1c-2c(C2CCCCC2)c2ccc(C(=O)NS(=O)(=O)N(C)C)cc21 | 20 to 1000 nM | 30 to 1000 nM |
| COc1ccc2c(c1)C[C@H](NC(=O)N(C)CC(=O)N(C)C)Cn1c-2c(C2CCCCC2)c2ccc(C(=O)NS(=O)(=O)N(C)C)cc21 | 20 to 1000 nM | 30 to 1000 nM |
| COc1ccc2c(c1)C[C@@H](NC(=O)N(C)CC(=O)N(C)C)Cn1c-2c(C2CCCCC2)c2ccc(C(=O)NS(=O)(=O)N(C)C)cc21 | 20 to 1000 nM | 30 to 1000 nM |
| COc1ccc2c(c1)CC(C(=O)N1CC(CO)C1)Cn1c-2c(C2CCCCC2)c2ccc(C(=O)NS(=O)(=O)N(C)C)cc21 (stereo not shown) | 20 to 1000 nM | 30 to 1000 nM |
| COc1ccc2c(c1)C=C(C(=O)N1CC(N(C)C)C1)Cn1c-2c(C2CCCCC2)c2ccc(C(=O)NS(=O)(=O)N(C)C)cc21 | 20 to 1000 nM | 30 to 1000 nM |
| COc1ccc2c(c1)C=C(C(=O)N(C)Cc1ccccn1)Cn1c-2c(C2CCCCC2)c2ccc(C(=O)NS(=O)(=O)N(C)C)cc21 | 20 to 1000 nM | 30 to 1000 nM |
| COc1ccc2c(c1)C=C(C(=O)N1CCN(C(=O)C3(O)CC3)CC1)Cn1c-2c(C2CCCCC2)c2ccc(C(=O)NS(=O)(=O)N(C)C)cc21 | 20 to 1000 nM | 30 to 1000 nM |
| COc1ccc2c(c1)C=C(C(=O)N1CC(C(=O)N(C)C)C1)Cn1c-2c(C2CCCCC2)c2ccc(C(=O)NS(=O)(=O)N(C)C)cc21 | 20 to 1000 nM | 30 to 1000 nM |
| COc1ccc2c(c1)C=C(C(=O)N1CC(C(=O)N3CCOCC3)C1)Cn1c-2c(C2CCCCC2)c2ccc(C(=O)NS(=O)(=O)N(C)C)cc21 | 20 to 1000 nM | 30 to 1000 nM |
| COc1ccc2c(c1)CC(C(=O)N1CCN(C(=O)C3(O)CC3)CC1)Cn1c-2c(C2CCCCC2)c2ccc(C(=O)NS(=O)(=O)N(C)C)cc21 (stereo not shown) | 20 to 1000 nM | 30 to 1000 nM |
| COc1ccc2c(c1)C=C(C(=O)N[C@@](C)(CO)C(=O)N(C)C)Cn1c-2c(C2CCCCC2)c2ccc(C(=O)NS(=O)(=O)N(C)C)cc21 | 20 to 1000 nM | 30 to 1000 nM |
| COc1ccc2c(c1)C=C(C(=O)N1C[C@@H](C)O[C@@H](C)C1)Cn1c-2c(C2CCCCC2)c2ccc(C(=O)NS(=O)(=O)N3CCCC3)cc21 | 20 to 1000 nM | 30 to 1000 nM |
| COc1ccc2c(c1)C=C(C(=O)N1CCOCC1)Cn1c-2c(C2CCCCC2)c2ccc(C(=O)NS(=O)(=O)N3CCC3)cc21 | 20 to 1000 nM | 30 to 1000 nM |
| COc1ccc2c(c1)C=C(C(=O)N1CCOCC1)Cn1c-2c(C2CCCCC2)c2ccc(C(=O)NS(=O)(=O)N3CCCC3)cc21 | 20 to 1000 nM | 30 to 1000 nM |
| COc1ccc2c(c1)C=C(C(=O)N1C[C@@H](C)O[C@@H](C)C1)Cn1c-2c(C2CCCCC2)c2ccc(C(=O)NS(=O)(=O)N3CCC3)cc21 | 20 to 1000 nM | 30 to 1000 nM |
| COc1ccc2c(c1)C=C(C(=O)N1CCOCC1)Cn1c-2c(C2CCCCC2)c2ccc(C(=O)NS(=O)(=O)c3ccc(C)cn3)cc21 | 20 to 1000 nM | 30 to 1000 nM |
| COc1ccc2c(c1)C=C(C(=O)N1C[C@@H](C)O[C@@H](C)C1)Cn1c-2c(C2CCCCC2)c2ccc(C(=O)NS(=O)(=O)c3ccc(C)cn3)cc21 | 20 to 1000 nM | 30 to 1000 nM |
| COC[C@H]1CN(C(=O)C2=Cc3cc(OC)ccc3-c3c(C4CCCCC4)c4ccc(C(=O)NS(=O)(=O)N(C)C)cc4n3C2)CCO1 | 20 to 1000 nM | 30 to 1000 nM |
| COC[C@@H]1CN(C(=O)C2=Cc3cc(OC)ccc3-c3c(C4CCCCC4)c4ccc(C(=O)NS(=O)(=O)N(C)C)cc4n3C2)CCO1 | 20 to 1000 nM | 30 to 1000 nM |
